Test results from PubChem BioAssay AID1918999 (Molecular Pharmacology Branch, DTP, NCI, 2023).

Test system: 556581-035-R-J1-PDC complex spheroid growth
Test: Anticancer human tumor 556581-035-R-J1-PDC patient-derived ovarian carcinoma cell line growth inhibition [AhR]
Conditions: for IC50: curve of first compound; for viability, T/C: stronger effect = lower value
Text: Multicellular complex tumor spheroid response to aryl hydrocarbon receptor antagonists in combination with a variety of drugs and investigational agents in selected tumor cell lines
The current study was undertaken to assess response to aryl hydrocarbon receptor antagonists in combination with standard-of-care drugs and investigational agents in solid tumor complex spheroid models. Complex spheroids include a stromal component modeled by human endothelial cells (HUVEC) and fibroblasts modeled by human mesenchymal stem cells (MSCs). The concentration ranges selected for each drug and investigational agent were based upon clinically achievable concentrations if the clinical Cmax of the agent was known.
Compounds. The drugs and investigational agents: BAY 2416964 (NSC825713), GNF351 (NSC835774), CH-223191 (NSC835775), CPI-455 (NSC825282), aza-TdCyd (NSC777586), decitabine (NSC127716), belinostat (NSC758774), entinostat (NSC756642), pevonedistat (NSC761192), tazemetostat (NSC777109), talazoparib (NSC765396), olaparib (NSC753686), selinexor (NSC780203), nedisertib (M3814, NSC802822), bortezomib (NSC756655), venetoclax (NSC766270), doxorubicin (NSC123127), elimusertib (BAY189344, NSC800525), ceralasertib (AZD6738, NSC777638), TAK-243 (NSC785004), alisertib (NSC759677), etoposide (NSC141540), topotecan (NSC609699), eribulin (NSC707389), gemcitabine (NSC613327), carboplatin (NSC241240), cisplatin (NSC119875), and SN-38 (NSC673596) were obtained from the National Cancer Institute (NCI) Developmental Therapeutics Program Chemical Repository (32). The FDA-approved anticancer drug set is available from the Developmental Therapeutics Program at https://dtp.cancer.gov/organization/dscb/obtaining/available plates.htm. […] The stock solutions were prepared in dimethyl sulfoxide (DMSO, Sigma-Aldrich, St. Louis, MO, cat. D2650), except for the platinum compounds which were prepared in saline (Quality Biological, Gaithersburg, MD, cat. 114-055-101), at 800-fold the tested concentration and stored at -70 degrees C prior to their use. All drugs and investigational agents were tested over a range starting from a high concentration at or near the clinical Cmax and decreasing in half-log increments. If the clinical Cmax for an agent had not been determined, the highest concentration tested was 10 microM (Table 1).
Cell Culture. All cells were maintained in an incubator at 37 degrees C and 5% CO2 with 95% humidity. The PDC lines were cultured according to standard operating procedures established by the NCI PDMR (https://pdmr.cancer.gov). Briefly, all PDCs were thawed and cultured in Matrigel-coated flasks prepared with a working solution of 1X Ham's F-12 nutrient mix, without supplementation (Invitrogen, Waltham, MA, cat. 11765054), 100 U/mL penicillin-streptomycin (Invitrogen, cat. 15140122), and 2.5% Matrigel (Corning Inc., Corning, NY, cat. 354248) for the first three passages. All PDCs were cultured in complete DMEM/F-12 media containing advanced DMEM/F-12 (Invitrogen, cat. 12634028), 4.9% defined fetal bovine serum, heat inactivated (HyClone Laboratories Inc., Logan, UT, cat. SH30070.03HI), 389 ng/mL hydrocortisone (Sigma-Aldrich, cat. H4001), 9.7 ng/mL human EGF recombinant protein (Invitrogen, cat. PHG0313), 23.4 microg/mL adenine (Sigma-Aldrich, cat. A2786), 97.3 U/mL penicillin-streptomycin (Invitrogen, cat. 15140122), 1.9 mM L-glutamine (Invitrogen, cat. 25030081), and 9.7 microM Y-27632 dihydrochloride (Tocris Bioscience, Bristol, United Kingdom, cat. 1254). The PDCs were cultured in complete DMEM/F12 media without 10 microM Y-27632 dihydrochloride for at least two passages prior to the screen. The established cell lines NCI-H1341 and […] were cultured in DMEM/F-12, HEPES (Invitrogen, cat. 11330032), 5% defined fetal bovine serum (HyClone Laboratories Inc., cat. SH30070.03), ITS premix universal culture supplement [insulin (5 microg/mL), transferrin (5 microg/mL), and selenious acid (5 ng/mL)] […]

[1] = second compound 0.1 µM, first compound 0.0316 µM
[2] = second compound 0.1 µM, first compound 0.1 µM
[3] = second compound 0.1 µM, first compound 0.316 µM
[4] = second compound 0.1 µM, first compound 1 µM
[5] = second compound 0.1 µM, first compound 3.16 µM
[6] = second compound 0.1 µM, first compound 10 µM
[7] = second compound 0.316 µM, first compound 0.0316 µM
[8] = second compound 0.316 µM, first compound 0.1 µM
[9] = second compound 0.316 µM, first compound 0.316 µM
[10] = second compound 0.316 µM, first compound 1 µM
[11] = second compound 0.316 µM, first compound 3.16 µM
[12] = second compound 0.316 µM, first compound 10 µM
[13] = second compound 1 µM, first compound 0.0316 µM
[14] = second compound 1 µM, first compound 0.1 µM
[15] = second compound 1 µM, first compound 0.316 µM
[16] = second compound 1 µM, first compound 1 µM
[17] = second compound 1 µM, first compound 3.16 µM
[18] = second compound 1 µM, first compound 10 µM
[19] = second compound 3.16 µM, first compound 0.0316 µM
[20] = second compound 3.16 µM, first compound 0.1 µM
[21] = second compound 3.16 µM, first compound 0.316 µM
[22] = second compound 3.16 µM, first compound 1 µM
[23] = second compound 3.16 µM, first compound 3.16 µM
[24] = second compound 3.16 µM, first compound 10 µM
[25] = second compound 10 µM, first compound 0.0316 µM
[26] = second compound 10 µM, first compound 0.1 µM
[27] = second compound 10 µM, first compound 0.316 µM
[28] = second compound 10 µM, first compound 1 µM
[29] = second compound 10 µM, first compound 3.16 µM
[30] = second compound 10 µM, first compound 10 µM
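Throughout, for viability, T/C: compound exposure lasted 7 days; 100% = DMSO vehicle control growth.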

SMILES: CCc1c2c(nc3ccc(O)cc13)-c1cc3c(c(=O)n1C2)COC(=O)[C@]3(O)CC + CC(CO)NC(=O)c1cc(-c2ccc(Cl)cc2)nn(-c2cnn(C)c2)c1=O
- IC50 (second compound 0.1 µM): 11.7 nM
- IC50 (second compound 0.316 µM): 16.4 nM
- IC50 (second compound 1 µM): 15.7 nM
- IC50 (second compound 3.16 µM): 11.5 nM
- IC50 (second compound 10 µM): 12.1 nM
- viability, T/C (second compound 0.1 µM, first compound 0.000949 µM): 77.2%
- viability, T/C (second compound 0.1 µM, first compound 0.003 µM): 73.5%
- viability, T/C (second compound 0.1 µM, first compound 0.00949 µM): 49.5%
- viability, T/C (second compound 0.1 µM, first compound 0.03 µM): 36.7%
- viability, T/C (second compound 0.1 µM, first compound 0.0949 µM): 19.2%
- viability, T/C (second compound 0.1 µM, first compound 0.3 µM): 11.6%
- viability, T/C (second compound 0.316 µM, first compound 0.000949 µM): 81.5%
- viability, T/C (second compound 0.316 µM, first compound 0.003 µM): 79.6%
- viability, T/C (second compound 0.316 µM, first compound 0.00949 µM): 60.7%
- viability, T/C (second compound 0.316 µM, first compound 0.03 µM): 36.9%
- viability, T/C (second compound 0.316 µM, first compound 0.0949 µM): 20.6%
- viability, T/C (second compound 0.316 µM, first compound 0.3 µM): 12.1%
- viability, T/C (second compound 1 µM, first compound 0.000949 µM): 77.3%
- viability, T/C (second compound 1 µM, first compound 0.003 µM): 74.2%
- viability, T/C (second compound 1 µM, first compound 0.00949 µM): 59.5%
- viability, T/C (second compound 1 µM, first compound 0.03 µM): 36.8%
- viability, T/C (second compound 1 µM, first compound 0.0949 µM): 21.4%
- viability, T/C (second compound 1 µM, first compound 0.3 µM): 11.3%
- viability, T/C (second compound 3.16 µM, first compound 0.000949 µM): 73.6%
- viability, T/C (second compound 3.16 µM, first compound 0.003 µM): 67%
- viability, T/C (second compound 3.16 µM, first compound 0.00949 µM): 52.6%
- viability, T/C (second compound 3.16 µM, first compound 0.03 µM): 34.9%
- viability, T/C (second compound 3.16 µM, first compound 0.0949 µM): 18%
- viability, T/C (second compound 3.16 µM, first compound 0.3 µM): 9.46%
- viability, T/C (second compound 10 µM, first compound 0.000949 µM): 80.2%
- viability, T/C (second compound 10 µM, first compound 0.003 µM): 69.9%
- viability, T/C (second compound 10 µM, first compound 0.00949 µM): 56.9%
- viability, T/C (second compound 10 µM, first compound 0.03 µM): 30%
- viability, T/C (second compound 10 µM, first compound 0.0949 µM): 18%
- viability, T/C (second compound 10 µM, first compound 0.3 µM): 8.73%

SMILES: Nc1ccccc1NC(=O)c1ccc(CNC(=O)OCc2cccnc2)cc1 + CC(CO)NC(=O)c1cc(-c2ccc(Cl)cc2)nn(-c2cnn(C)c2)c1=O
- IC50 (second compound 0.1 µM): 1340 nM
- IC50 (second compound 0.316 µM): 1590 nM
- IC50 (second compound 1 µM): 1660 nM
- IC50 (second compound 3.16 µM): 1440 nM
- IC50 (second compound 10 µM): 1560 nM
- viability, T/C [1]: 96.9%
- viability, T/C [2]: 102%
- viability, T/C [3]: 78%
- viability, T/C [4]: 53.2%
- viability, T/C [5]: 36.9%
- viability, T/C [6]: 17.5%
- viability, T/C [7]: 107%
- viability, T/C [8]: 91%
- viability, T/C [9]: 87.1%
- viability, T/C [10]: 58.7%
- viability, T/C [11]: 34.9%
- viability, T/C [12]: 15.4%
- viability, T/C [13]: 118%
- viability, T/C [14]: 100%
- viability, T/C [15]: 77.3%
- viability, T/C [16]: 60.8%
- viability, T/C [17]: 38.6%
- viability, T/C [18]: 17.8%
- viability, T/C [19]: 105%
- viability, T/C [20]: 102%
- viability, T/C [21]: 84.8%
- viability, T/C [22]: 58%
- viability, T/C [23]: 33.2%
- viability, T/C [24]: 20.6%
- viability, T/C [25]: 106%
- viability, T/C [26]: 103%
- viability, T/C [27]: 88.6%
- viability, T/C [28]: 62.8%
- viability, T/C [29]: 30.4%
- viability, T/C [30]: 12.6%

SMILES: O=C(c1cc(Cc2n[nH]c(=O)c3ccccc23)ccc1F)N1CCN(C(=O)C2CC2)CC1 + CC(CO)NC(=O)c1cc(-c2ccc(Cl)cc2)nn(-c2cnn(C)c2)c1=O
- IC50 (second compound 0.1 µM): > 10000 nM
- IC50 (second compound 0.316 µM): > 10000 nM
- IC50 (second compound 1 µM): > 10000 nM
- IC50 (second compound 3.16 µM): > 10000 nM
- IC50 (second compound 10 µM): > 10000 nM
- viability, T/C [1]: 93.7%
- viability, T/C [2]: 94.6%
- viability, T/C [3]: 93%
- viability, T/C [4]: 85.1%
- viability, T/C [5]: 83.7%
- viability, T/C [6]: 82.4%
- viability, T/C [7]: 91.9%
- viability, T/C [8]: 98%
- viability, T/C [9]: 93%
- viability, T/C [10]: 89.3%
- viability, T/C [11]: 81.4%
- viability, T/C [12]: 84.3%
- viability, T/C [13]: 93.9%
- viability, T/C [14]: 108%
- viability, T/C [15]: 95.2%
- viability, T/C [16]: 95%
- viability, T/C [17]: 90.1%
- viability, T/C [18]: 73.2%
- viability, T/C [19]: 90.2%
- viability, T/C [20]: 89.7%
- viability, T/C [21]: 94.2%
- viability, T/C [22]: 84%
- viability, T/C [23]: 81.4%
- viability, T/C [24]: 74.4%
- viability, T/C [25]: 106%
- viability, T/C [26]: 105%
- viability, T/C [27]: 85.2%
- viability, T/C [28]: 99.5%
- viability, T/C [29]: 79.1%
- viability, T/C [30]: 77.6%
